Columns and labels:
α1 glycine = target: T1, α1 glycine (Homo sapiens, UniProt P23415); test: Glycine receptor activity, two-electrode voltage-clamp in Xenopus laevis oocytes; assay type: cell-based; conditions: TEVC, holding potential −70 mV
T1 construct: expressed in transfected cells; host or cells: Xenopus laevis oocytes (cRNA injection)
T1 sequence (P23415 29-457): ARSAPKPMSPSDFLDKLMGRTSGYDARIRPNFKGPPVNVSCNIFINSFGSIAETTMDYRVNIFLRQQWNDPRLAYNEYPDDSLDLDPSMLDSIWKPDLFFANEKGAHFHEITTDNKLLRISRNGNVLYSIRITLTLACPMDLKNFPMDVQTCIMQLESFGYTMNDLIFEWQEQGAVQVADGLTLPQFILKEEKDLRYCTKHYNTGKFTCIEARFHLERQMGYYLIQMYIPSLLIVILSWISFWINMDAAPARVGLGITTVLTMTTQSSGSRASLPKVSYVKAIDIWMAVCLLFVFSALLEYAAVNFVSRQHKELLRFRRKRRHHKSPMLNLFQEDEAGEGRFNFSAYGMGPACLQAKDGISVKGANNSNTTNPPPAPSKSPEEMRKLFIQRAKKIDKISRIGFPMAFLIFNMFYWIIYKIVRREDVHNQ
Method: Oocytes were surgically removed from adult female Xenopus laevis clawfrogs anaesthetized by immersion in 0.3% tricaine in water (w/v). All protocols were approved by the local animal care and use committee (II25.3-19c20/15; RP Darmstadt, Germany). Stage V and VI Oocytes were dissected and stored in sterile-filtered ND96 medium (composition in mM: 96 NaCl, 2 KCl, 1 CaCl, 1 MgCl, 5 HEPES, pH 7.4) containing gentamycin (50 μg/mL). The oocytes were isolated and enzymatically and maintained as described previously (Grudzinska et al., 2005). Oocytes were injected with 5 ng of cRNA using a Drummond microinjector (Drummond Scientific, Broomall, USA) and incubated in ND96 for 24 h at 18° C. before electrophysiological recording. Two-electrode voltage-clamp (TEVC) with microelectrodes containing 3 M KCl was performed in bath solution at a holding potential of −70 mV as described previously (Laube et al., 2000). […]
Currents were measured with Clampfit 9.2 software (Molecular Devices), Results were analyzed using the KaleidaGraph program (Synergy Software, Reading, Pa.) and GraphPad Prism version 5.0 (GraphPad Software Inc., San Diego, Calif.). […] For propofol and 4-chloropropofol modulation, responses to EC20 glycine after application were analyzed as described previously (Lynagh and Laube, 2014); mean±standard error of the mean (SEM) are reported. […]

neuropathic rats [1] = test: Neuropathic pain model (partial sciatic nerve ligation): cold hyperalgesia, 10° C. cold plate paw withdrawal latency; assay type: in vivo, rat
Method: Fasted, male, Wistar rats. n=6/group. Vehicle: 10% DMSO/10% Solutol HS15/80% saline. 10 ml/kg p.o. One-way ANOVA, comparison with time-matched vehicle group using Tukey's HSD test, *p<0.05, **p<0.01, ***p<0.001.
• 1) In rats a peripheral neuropathy was induced by partial ligation of the sciatic nerve in one hind limb. • 2) Two weeks (12-15 days) after induction of peripheral neuropathy stable mechanical (tactile) allodynia was induced in the hind paw of the affected limb. • 3) Five treatment groups of male SD rats (n=8) were used: vehicle control (drug formulation), 3 drug doses, and a positive control, lamotrigine (30 mg/kg). Animals were randomized between groups and the experiment was carried out using blinded conditions. The study was split with n=4/group in each experiment. • 4) Baseline behavioural measurements were obtained prior to surgery and at intervals post-surgery. Predose behavioural measurements were obtained by measuring paw withdrawal thresholds 12-15 days following nerve ligation. • 5) Compound efficacy was determined by measuring paw withdrawal thresholds at specified intervals following vehicle/compound treatment. Animals […]
(§1) Compound/vehicle were administered at specified doses. Following treatment, further readings were taken; 1, 3, 6 and 24 hour after p.o. administration.
Cold sensitivity was assessed using a commercially available cold-plate (Ugo Basile, Milan). The cold-plate was set according to pre-determined calibration data using a surface temperature probe to correlate set temperature to actual surface temperature over a wide temperature range (−5° C. to 26° C.). […] Paw withdrawal latencies were determined with the cold-plate set at 10° C. […] The end point was taken as the withdrawal of the paw and recorded as the withdrawal latency for the ipsilateral and the contralateral paw. […]
(§2) Raw data were analysed using parametric statistical tests, including one-way analysis of variance (ANOVA) followed by Tukey's post hoc test repeated measures of ANOVA. […]

neuropathic rats [2] = test: Neuropathic pain model (partial sciatic nerve ligation): tactile allodynia / mechanical paw withdrawal thresholds; assay type: in vivo, rat
Method: Fasted, male, Wistar rats. n=6/group. Vehicle: 10% DMSO/10% Solutol HS15/80% saline. 10 ml/kg p.o. One-way ANOVA, comparison with time-matched vehicle group using Tukey's HSD test, *p<0.05, **p<0.01, ***p<0.001
Protocol for study of compounds in a model of neuropathic pain: reversal of tactile allodynia.
• 1) In rats a peripheral neuropathy was induced by partial ligation of the sciatic nerve in one hind limb. • 2) Two weeks (12-15 days) after induction of peripheral neuropathy stable mechanical (tactile) allodynia was induced in the hind paw of the affected limb. • 3) Five treatment groups of male SD rats (n=8) were used: vehicle control (drug formulation), 3 drug doses, and a positive control, lamotrigine (30 mg/kg). Animals were randomized between groups and the experiment was carried out using blinded conditions. The study was split with n=4/group in each experiment. • 4) Baseline behavioural measurements were obtained prior to surgery and at intervals post-surgery. Predose behavioural measurements were obtained by measuring paw withdrawal thresholds 12-15 days following nerve ligation. • 5) Compound efficacy was determined by measuring paw withdrawal thresholds at specified intervals following vehicle/compound treatment. Animals
All animal procedures were carried out in accordance with the UK Animals (Scientific Procedures) Act 1986 and associated guidelines. Animals were maintained in a controlled lighting environment and given food and water ad libitum. Male Sprague Dawley rats (120-140 g at time of surgery) were used.
Tests compounds as well as lamotrigine (30 mg/kg, volume: 10 ml/kg)) were prepared in the designated formulation (10% DMSO, Solutol HS 15/80% and 0.9% saline for p.o. administration) and administered via the chosen route.
Allodynia was examined in the model of neuropathic pain induced by partial ligation of the sciatic nerve as described by Seltzer et al (1990). […]
Tactile allodynia was assessed by measuring withdrawal thresholds to calibrated von Frey hairs. […] The lowest amount of force required to elicit a response was recorded as the paw withdrawal threshold (in grams).
Allodynia was measured on both the ipsilateral (ligated) and contralateral (non-ligated) paw prior to (pre-dose) and at a set time point following compound or vehicle administration (post-dose). […]
as §1, §2

[3] = contralateral (non-ligated) paw

- EC50 (α1 glycine): 0.46 nM
- melting point: 174 to 176 °C
SMILES: CC(C)(C)c1cc(C(=O)N2CCOCC2)cc(C(C)(C)C)c1O [Compound 82, (3,5-Di-tert-butyl-4-hydroxyphenyl)(morpholino) methanone]
- Peak reversal of cold hyperalgesia (neuropathic rats [1]; 30 mg/kg p.o., at 1 h, 10° C. cold plate, neuropathic rats): 74%
- Contralateral paw withdrawal latencies to cold (neuropathic rats [1]; [3]): increased
- Reversal of cold (10° C. cold plate) parameter (neuropathic rats [1]; p.o., neuropathic rats): marked and long-lasting reversal
- Peak reversal of tactile allodynia (neuropathic rats [2]; 30 mg/kg p.o., at 1 h, ipsilateral paw, neuropathic rats): 72%
- Efficacy across doses (cold and mechanical parameters) (neuropathic rats [2]; all three doses, p.o.): good and dose-related efficacy
- Contralateral paw withdrawal thresholds to mechanical pressure (neuropathic rats [2]; [3]): significant increase
- Reversal of mechanical (paw pressure) parameter (neuropathic rats [2]; p.o., neuropathic rats): marked and long-lasting reversal
